In article PMC5487684, “Safety, Pharmacokinetics, and Antiviral Activity of a Novel HIV Antiviral, ABX464, in Treatment-Naive HIV-Infected Subjects in a Phase 2 Randomized, Controlled Study” (Antimicrobial Agents and Chemotherapy, 2017):
“Also recorded” adds a separate entry of the source.

Assays:
HIV [1] = test: HIV viral load (HIV-1 RNA copies per milliliter) in treatment-naive HIV-infected patients; type: in vivo
Procedure: Safety assessments and laboratory tests were carried out according to the schedules described in Table S4 for groups dosed every day, every 3 days, and 3 times a day. Follow-up visits were scheduled for 7 days after the last dose and subsequently once every week in order to assess the elimination of the main ABX464 metabolite and to assess the viral load. Follow-up visits were terminated when the virus load was within 0.5 log of the baseline value or after 3 follow-up visits, whichever came first. Prior to the statistical analyses, AEs were coded using the Medical Dictionary for Regulatory Activities (MedDRA dictionary; last available version) in order to be tabulated by system organ class (SOC) and preferred term (PT). The AEs were analyzed according to the treatment emergence phase from the first study drug administration on day 1 up to 48 h after the last study drug administration. The number and percentage of subjects with at least one TEAE were tabulated by SOC and PT for each group and dose. The number of occurrences of TEAEs was also analyzed in the same way by SOC and PT for each group and dose, by grade of severity for each group and dose, and by level of causality to the study drug for each group and dose.
(§1) Plasma samples were analyzed for ABX464 and ABX464-NGlc using validated bioanalytical methods by Atlanbio (Saint Nazaire, France) according to good laboratory practices. Pharmacokinetic parameters were calculated by noncompartmental analysis (NCA), using Phoenix WinNonlin software (Pharsight Corporation) running on a personal computer. On day 1, the following PK parameters were generated: Cmax, the time to Cmax (Tmax), lag time (tlag), elimination rate constant (kel), area under the concentration-time curve (AUC) from time zero to time t (AUC0–t), AUC from time zero to infinity (AUC0–∞), apparent clearance (CL/F), and apparent volume of distribution (V/F). On the other days of PK assessment, only Cmax, Tmax, tlag, kel, and AUC0–t were generated. The secondary analysis concerned pharmacodynamic (PD) activity, as expressed by CD4 and CD8 levels and viral load across time. The HIV viral load was analyzed in the prequalified individual local study center laboratories. CD4 and CD8 cell counts were also determined in the local study center laboratories. With respect to the viral load, changes in the log-transformed viral load values between 24 h postdose and predose were calculated on each day, and a comparison between each dose level and pooled placebo data was made. Moreover, the rate of success (defined as a decrease in the viral load value of at least 0.5 log) was evaluated for each treatment (including placebo) and compared between treatments.
No formal sample size determination was done. The aim of the study was to obtain reliable and consistent data and to expose a limited number of subjects to ABX464. To achieve this aim, six subjects per group received ABX464. A mixed model analysis of covariance of the changes in the viral load compared to that at the baseline was conducted on log-transformed values. Baseline parameters and age were covariates, treatment groups were fixed effects, and subjects were random effects.

healthy subjects = settings: cited from earlier work
HIV [2] = system: HIV; set-up: method as in PMID 25889234; settings: human PBMCs, treatment for at least 24 weeks; cited from earlier work
[3] = cited from earlier work
CD4 and CD8 cell counts = CD4 and CD8 cell counts in HIV-infected subjects; type: in vivo, human
Procedure: as §1, with “The secondary analysis concerned pharmacodynamic (PD) activity, as expressed by CD4 and CD8 levels and viral load across time.” left out

[4] = Non-infected, single oral 50mg (fasted), N 17
[5] = Non-infected, single oral 50mg (fasted), N 23

FC(F)(F)Oc1ccc(Nc2ccc3cccc(Cl)c3n2)cc1 [ABX464]
Change in log10 no. of RNA copies/ml from that at the baseline (HIV [1]; Group 5 (75 mg q.d., fed), subject 605, day 7): −0.89 log10 no. of RNA copies/ml
Change in log10 no. of RNA copies/ml from that at the baseline (HIV [1]; Group 5 (75 mg q.d., fed), subject 605, day 8): −0.83 log10 no. of RNA copies/ml
Change in log10 no. of RNA copies/ml from that at the baseline (HIV [1]; Group 5 (75 mg q.d., fed), subject 605, day 10): −1.06 log10 no. of RNA copies/ml
Change in log10 no. of RNA copies/ml from that at the baseline (HIV [1]; Group 5 (75 mg q.d., fed), subject 605, day 11): −1.05 log10 no. of RNA copies/ml
Change in log10 no. of RNA copies/ml from that at the baseline (HIV [1]; Group 6 (100 mg q.d., fasted), subject 804, day 11): −0.52 log10 no. of RNA copies/ml
Change in log10 no. of RNA copies/ml from that at the baseline (HIV [1]; Group 6 (100 mg q.d., fasted), subject 804, day 15): −0.59 log10 no. of RNA copies/ml
Change in log10 no. of RNA copies/ml from that at the baseline (HIV [1]; Group 6 (100 mg q.d., fasted), subject 807, day 11): −0.51 log10 no. of RNA copies/ml
Change in log10 no. of RNA copies/ml from that at the baseline (HIV [1]; Group 6 (100 mg q.d., fasted), subject 807, day 18): −1.44 log10 no. of RNA copies/ml
Change in log10 no. of RNA copies/ml from that at the baseline (HIV [1]; Group 7 (150 mg every 3 days, fed), subject 908, day 16): −0.72 log10 no. of RNA copies/ml
Change in log10 no. of RNA copies/ml from that at the baseline (HIV [1]; Group 7 (150 mg every 3 days, fed), subject 908, day 19): −0.53 log10 no. of RNA copies/ml
Change in log10 no. of RNA copies/ml from that at the baseline (HIV [1]; Group 7 (150 mg every 3 days, fed), subject 908, day 20): −0.59 log10 no. of RNA copies/ml
Change in log10 no. of RNA copies/ml from that at the baseline (HIV [1]; Group 8 (150 mg q.d., fed), subject 1001, day 10): −0.5 log10 no. of RNA copies/ml
Change in log10 no. of RNA copies/ml from that at the baseline (HIV [1]; Group 8 (150 mg q.d., fed), subject 1001, day 11): −0.62 log10 no. of RNA copies/ml
Change in log10 no. of RNA copies/ml from that at the baseline (HIV [1]; Group 8 (150 mg q.d., fed), subject 1001, day 14): −0.72 log10 no. of RNA copies/ml
Change in log10 no. of RNA copies/ml from that at the baseline (HIV [1]; Group 8 (150 mg q.d., fed), subject 1001, day 15): −0.68 log10 no. of RNA copies/ml
Change in log10 no. of RNA copies/ml from that at the baseline (HIV [1]; Group 8 (150 mg q.d., fed), subject 1004, day 10): −0.5 log10 no. of RNA copies/ml
Change in log10 no. of RNA copies/ml from that at the baseline (HIV [1]; Group 8 (150 mg q.d., fed), subject 1004, day 14): −0.51 log10 no. of RNA copies/ml
Change in log10 no. of RNA copies/ml from that at the baseline (HIV [1]; Group 8 (150 mg q.d., fed), subject 1004, day 15): −0.51 log10 no. of RNA copies/ml
Change in log10 no. of RNA copies/ml from that at the baseline (HIV [1]; Group 8 (150 mg q.d., fed), subject 1005, day 7): −0.53 log10 no. of RNA copies/ml
Change in log10 no. of RNA copies/ml from that at the baseline (HIV [1]; Group 8 (150 mg q.d., fed), subject 1005, day 11): −0.52 log10 no. of RNA copies/ml
Change in log10 no. of RNA copies/ml from that at the baseline (HIV [1]; Group 8 (150 mg q.d., fed), subject 1008, day 8): −0.59 log10 no. of RNA copies/ml
Change in log10 no. of RNA copies/ml from that at the baseline (HIV [1]; Group 8 (150 mg q.d., fed), subject 1008, day 10): −0.57 log10 no. of RNA copies/ml
Change in log10 no. of RNA copies/ml from that at the baseline (HIV [1]; Group 8 (150 mg q.d., fed), subject 1008, day 11): −0.56 log10 no. of RNA copies/ml
Change in log10 no. of RNA copies/ml from that at the baseline (HIV [1]; Group 8 (150 mg q.d., fed), subject 1008, day 14): −0.53 log10 no. of RNA copies/ml
Mean changes in the viral load vs placebo group (HIV [1]; any time point over the 14-day study period, all treatment groups): No statistically significant differences
Subjects with a decrease of ≥0.5 log10 in HIV RNA load (HIV [1]; group 1, 25 mg every 3 days, fasted): 3 subjects
Subjects with a decrease of ≥0.5 log10 in HIV RNA load (HIV [1]; group 2, 25 mg q.d., fasted): 1 subjects
Subjects with a decrease of ≥0.5 log10 in HIV RNA load (HIV [1]; group 4, 50 mg t.i.d., fed): 2 subjects
Subjects with a decrease of ≥0.5 log10 in HIV RNA load (HIV [1]; group 5, 75 mg q.d., fed): 1 subjects
Subjects with a decrease of ≥0.5 log10 in HIV RNA load (HIV [1]; group 6, 100 mg q.d., fasted): 2 subjects
Subjects with a decrease of ≥0.5 log10 in HIV RNA load (HIV [1]; group 7, 150 mg every 3 days, fed): 1 subjects
Subjects with a decrease of ≥0.5 log10 in HIV RNA load (HIV [1]; group 8, 150 mg q.d. for 2 weeks, fed (6 treated)): 4 subjects
Tolerability in healthy volunteers, food effect and repeated dosing study (healthy subjects): good tolerability profile
Tolerability in healthy subjects, first-in-human study (healthy subjects; single ascending oral dose, up to 150 mg): very well tolerated; also recorded: well tolerated
Development of drug resistance in vitro (HIV [2]): no development of resistance-inducing mutations; also recorded: did not induce any drug resistance
AUC0-∞, GM [3, 4]: 43.93 ng·h/mL
AUC0-∞, Mean [3, 4]: 51.74 ng·h/mL
t1/2, GM [3, 4]: 49.8 min
t1/2, Mean [3, 4]: 52.8 min
Cmax, GM [3, 5]: 13.70 ng/mL
Cmax, Mean [3, 5]: 17.70 ng/mL
tmax, Mean [3, 5]: 90 min
Metabolism in human subjects ([3]; healthy subjects, single ascending oral dose): rapidly and substantially metabolized into ABX464-N-glucuronide
CD4 profile (CD4 and CD8 cell counts; each ABX464 dose): no trend associated with product use or dose
Mean changes in the CD8 cell counts from baseline (CD4 and CD8 cell counts; human, in vivo): did not show any particular trend
